From patent US20120020940A1, “ANTIMICROBIAL PEPTIDES” (Helmholtz Zentrum München Deutsches Forschungszentrum Für …, priority 2008, published 2012) come the findings set out here.

One data set concerns Alternaria alternata. Nature of the data set: MIC, antifungal in-vitro inhibition assay (Example 2). It counts as cell-based. The note with it: Table 1. As to the method: (§1) In-vitro inhibition assays were performed in sterile flat-bottom 96-well plates (Greiner bio-one, Frickenhausen). Antimicrobial peptides were dissolved in 0.01% acetic acid containing 0.2% BSA (500 μg/ml), filter sterilized and stored at −20° C. For inhibition assays dilutions of peptides ranging from 5 to 200 μg/ml were prepared and 10 μl (antibacterial assay) or 20 μl (antifungal assay) of each concentration was loaded per well.
(§2) Spores of fungi were collected by water washes of sporulating cultures grown on 2% malt extract agar and spore concentration was determined by microscopy. The concentration of the spores was adjusted to 1.5-2×10^3 spores/ml in 2% malt extract medium and 80 μl of fungal spores were added per well. The final peptide concentrations used in the fungal inhibition assays were […]. After overnight incubation at room temperature the plate were put on a rotary shaker (300 rpm) for further two days to ensure consistantly growth. Antifungal effects of the peptides were determined by a microplate reader (Alternaria, Fusarium) at OD590 nm or by visual screening of the plates (Botrytis, Cladosporium).
(§3) The lowest peptide concentration leading to complete inhibition of bacterial growth or spore germination/mycelial growth (minimal inhibition concentration, MIC) was determined for each organism-peptide combination. For each peptide concentration two identical inhibition assays were performed.

For a further data set, the system named is Botrytis cinerea. Described as above. It counts as cell-based. The note with it: Table 1. As to the method:
as §1, §2, §3

The test system of the next data set is Cladosporium herbarum. The data set is described as above. The note with it: Table 1. It counts as cell-based. On the procedure: as §1, §2, §3
Data set [1] relates to Clavibacter michiganensis. Description: MIC and lethal concentration (Example 3). Particulars: Table 2; for MIC (>90% inhibition): 1-2 days at 25° C.; for LC, lethal concentration (100% inhibition): at least 4 days of incubation. Format: cell-based. As to the method:
as §1
(§4) Bacteria colonies from overnight agar plate cultures were resuspended into 5 ml LB-medium or HPG-medium (OD600 nm=0.08-0.1) and diluted into LB-medium/HPG-medium (1:100). 90 μl of this suspension containing about 10^5-10^6 CFU/ml of tested bacteria were added to each well resulting in final peptide concentrations of 0, 0.5, 1, 2, 5, 10, and 20 μg/ml. […] The lowest concentration, in which there is no observable growth (>90% inhibition) is referred to as minimal inhibitory concentration (MIC). […] For each peptide concentration two identical inhibition assays were performed.

Data set [2] relates to Pectobacterium carotovorum. Nature of the data set: MIC and lethal concentration (Example 3). It counts as cell-based. Particulars: Table 2; for MIC (>90% inhibition): 1-2 days at 25° C.; for LC, lethal concentration (100% inhibition): at least 4 days of incubation. On the procedure:
as §1, §4

The test system of data set [3] is Pseudomonas corrugata. Nature of the data set: MIC and lethal concentration (Example 3). It counts as cell-based. Particulars: Table 2; for MIC (>90% inhibition): 1-2 days at 25° C.; for LC, lethal concentration (100% inhibition): at least 4 days of incubation. As to the method:
as §1, §4

The subject of data set [4] is Pseudomonas syringae pv. syringae. Nature of the data set: MIC and lethal concentration (Example 3). Format: cell-based. The note with it: Table 2; for MIC (>90% inhibition): 1-2 days at 25° C.; for LC, lethal concentration (100% inhibition): at least 4 days of incubation. On the procedure: as §1, §4
Data set [5] has as its system Pseudomonas syringae pv. tomato. Description: MIC and lethal concentration (Example 3). It counts as cell-based. Particulars: Table 2; for MIC (>90% inhibition): 1-2 days at 25° C.; for LC, lethal concentration (100% inhibition): at least 4 days of incubation. On the procedure: as §1, §4
Data set [6] concerns Xanthomonas vesicatoria. Nature of the data set: MIC and lethal concentration (Example 3). It counts as cell-based. Particulars: Table 2; for MIC (>90% inhibition): 1-2 days at 25° C.; for LC, lethal concentration (100% inhibition): at least 4 days of incubation. As to the method:
as §1, §4

In another data set the test system is Enterobacter cloacae. Format: cell-based. On the procedure: (§5) In-vitro inhibition assays were performed in sterile ELISA-plates (Greiner bio-one, Frickenhausen or Nunc, Wiesbaden). Antimicrobial peptides were dissolved in 0.01% acetic acid containing 0.2% BSA and stored at −20° C. […] After incubation for one day at 27° C. growth inhibition of the bacteria was analyzed by a ELISA microplate reader.

The next data set has as its system Escherichia coli (DH5α). It counts as cell-based. The note with it: DH5α. As to the method:
as §5

A further data set has as its system Klebsiella pneumoniae. Format: cell-based. As to the method: as §5
The next data set deals with Klebsiiella oxytoca. It counts as cell-based. On the procedure:
as §5

The next data set deals with Pseudomonas aeruginosa. Format: cell-based. As to the method:
as §5

The next data set deals with Staphylococcus aureus. Format: cell-based. As to the method:
as §5

Data set [7] deals with Staphylococcus epidermidis. It counts as cell-based. As to the method:
as §5

The test system of a further data set is Yersinia enterocolitica. Format: cell-based. On the procedure:
as §5

The test system of data set [8] is Clavibacter michiganensis sub. michiganensis. The note with it: overnight 25° C., Table 1.
In data set [9] the test system is Pectobacterium carotovorum sub. carotovorum.
Data set [10] relates to Xanthomonas vesicatoria.
For data set [11], the system named is Pseudomonas syringae pv. tomato.
The subject of data set [12] is Pseudomonas syringae pv. syringae.
The test system of data set [13] is Pseudomonas corrugata.
For data set [14], the system named is human immundeficiency virus (HIV). It counts as cell-based. Particulars: HeLa cells LC5-RIC pre-incubated 30 min with peptide, read after 72 h; read-out: IC50, concentration where the infection is decreased by 50% (compared to non-treated controls). On the procedure:
To measure the activity of the designed oligopeptides against human immundeficiency virus (HIV) a fluorescence-based reporter system was used. HeLa cells (LC5-RIC) harbour a reporter gene, which regulates in dependency of HIV Rev and Tat proteins the synthesis of a red fluorescing protein. In this way the infection of the HeLa cells (LC5-RIC) is indicated and the infection rate can be quantified using a fluorescence microplate reader.
(§6) Antimicrobial oligopeptides were dissolved in 0.01% acetic acid containing 0.2% BSA (500 μg/ml), filter sterilized and stored at −20° C. […] (in 5% CO2). Afterwards, virus particles were added to the pre-treated HeLa cells and the infection was quantified by measuring red fluorescence with a fluorescence microplate reader after 72 h incubation. The viability of the HeLa cells was determined by measuring the activity of the mitochondrial dehydrogenase according to Lindl and Bauer (1994) and Mosmann (1983).

For another data set, the system named is HeLa cells. Description: Cell viability, mitochondrial dehydrogenase activity. Format: cell-based. Particulars: at the IC50 concentration (6.8 μM). As to the method:
as §6

No end group written: not given here.

Regarding “LRFLKKILKHLF-NH2 [SP10, LRFLKKILKHLF -NH2]”, the figures for the “Minimal inhibition concentration (MIC) for complete inhibition of spore germination/mycelial growth” value with Alternaria alternata, with Botrytis cinerea and in the data set on Cladosporium herbarum were greater than 100 µg/mL, greater than 100 µg/mL and 10 µg/mL, respectively. Further, the “MIC (>90% inhibition)” value in [1] was 0.5/0.5 μg/ml; in data set [2], 1.0 µg/mL; against Pseudomonas corrugata [3], 0.5 µg/mL; in [4], 0.5 µg/mL; in [5], 2.5/2.5 μg/ml; against Xanthomonas vesicatoria [6], 0.5/0.5 μg/ml. Also, the “MIC (>90% inhibition)” value stood at 20 µg/mL in the data set with Enterobacter cloacae; 10 µg/mL in the data set with Escherichia coli (DH5α); 20 µg/mL against Klebsiella pneumoniae; 20 µg/mL against Klebsiiella oxytoca; 10 µg/mL against Pseudomonas aeruginosa; 5 µg/mL with Staphylococcus aureus. Also, the “MIC (>90% inhibition)” value in data set [7] worked out at 2 µg/mL; against Yersinia enterocolitica, 10 µg/mL. The “LC, lethal concentration (100% inhibition)” value in data set [1] was 0.5/0.5 μg/ml; in data set [2], 2.5 µg/mL; with Pseudomonas corrugata [3], 1.0 µg/mL; in [4], 1.0 µg/mL; in data set [5], 2.5/2.5 μg/ml; with Xanthomonas vesicatoria [6], 0.5/0.5 μg/ml. The “Minimal inhibition concentration (MIC) for complete inhibition of bacterial growth” value in data set [8] was 10 µg/mL; in data set [9], 20 µg/mL; in the data set on Xanthomonas vesicatoria [10], 5 µg/mL; in data set [11], 10 µg/mL; in data set [12], 10 µg/mL; with Pseudomonas corrugata [13], 20 µg/mL.

For LRKAKKIAKKLF-NH2 [SP10-11], the “MIC (>90% inhibition)” value in data set [1] was 5.0/5.0 μg/ml; in [2], >10/>10 μg/ml; against Pseudomonas corrugata [3] it was 0.5/0.5 μg/ml; in data set [4], 0.1 µg/mL; in data set [5] it was 0.5/0.5 μg/ml; in the data set on Xanthomonas vesicatoria [6], 0.5 µg/mL. Also, the “LC, lethal concentration (100% inhibition)” value is 5.0/5.0 μg/ml in data set [1]; >10/>10 μg/ml in [2]; 0.5/0.5 μg/ml in the data set with Pseudomonas corrugata [3]; 0.25 µg/mL in data set [4]; 0.5/0.5 μg/ml in data set [5]; 1.0 µg/mL in the data set on Xanthomonas vesicatoria [6]. Also, the IC50 in data set [14] came out at 6.8 µM. Further, the “negative/toxic effect on test cells (HeLa cells)” value in the data set on HeLa cells was “No negative/toxic effect”.
